From patent publication US20250346550A1, “METHODS OF MODULATING ENDONUCLEASE G USING RESVERATROL AND ITS DERIVATIVES” (THE REGENTS OF THE UNIVERSITY OF COLORADO A BODY CORPORATE, priority 2022, published 2025)

Legend:
CPS-6 = biological target: T1, CPS-6 (Caenorhabditis elegans, UniProt Q95NM6); assay: plasmid DNA cleavage assay; type: biochemical, C. elegans; conditions: 20 μM; for effect on CPS-6 nuclease activity: 10 ng CPS-6, pPD49.78 plasmid DNA
T1 construct: Recombinant CPS-6 protein was incubated with the supercoiled plasmid DNA substrate
T1 sequence (Q95NM6 1-308): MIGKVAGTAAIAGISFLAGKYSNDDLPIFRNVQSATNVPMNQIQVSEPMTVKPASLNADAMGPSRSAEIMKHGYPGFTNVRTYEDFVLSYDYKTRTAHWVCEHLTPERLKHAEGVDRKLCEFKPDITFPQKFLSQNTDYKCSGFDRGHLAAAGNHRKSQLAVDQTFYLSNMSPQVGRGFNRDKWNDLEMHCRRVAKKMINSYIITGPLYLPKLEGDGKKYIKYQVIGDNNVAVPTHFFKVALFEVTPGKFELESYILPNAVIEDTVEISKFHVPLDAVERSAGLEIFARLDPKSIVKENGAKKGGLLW
Description: FIG. 3. Resveratrol isomers target CPS-6 to affect PME. a, b, Both cis-resveratrol and trans-resveratrol act paternally to affect PME. The numbers of MTR-stained paternal mitochondrial clusters in embryos at 64-cell (a) or 16-cell (b) stage from the indicated crosses were scored. N2 males or hermaphrodites were pretreated with 0.25% ethanol (Mock), 50 μM cis-resveratrol (a), or 50 μM trans-resveratrol (b) as indicated before mating. c-g, Quantification of MTR-stained paternal mitochondrial clusters in 64-cell embryos from the indicated crosses treated with 0.25% ethanol (Mock), 50 μM cis-resveratrol, and 50 μM trans-resveratrol, respectively. Alleles used are lgg-1(bp523), cps-6(tm3222) and rad-23(tm2595). Data are mean s.e.m; n≥15 embryos (a) and n≥20 embryos (b, c-g) were scored in each experiment. ***P<0.001; n.s., not significant, two-sided, unpaired t-test. h, Resveratrol isomers enhance or inhibit the nuclease activity of CPS-6 in a plasmid DNA cleavage assay. 10 ng of CPS-6 were incubated with 0.25% ethanol (Mock), 20 μM cis-resveratrol, or 20 μM trans-resveratrol in dark at 4° C. for 1.5 hours, before 1 μg of the pPD49.78 plasmid DNA were added to the reactions. After further incubation at 30° C. for 1 hour, the reactions were resolved on a 1% agarose gel. Three different forms of plasmid DNA are indicated.
FIG. 11. Stabilized trans-resveratrol enhances the nuclease activity of CPS-6 in a plasmid DNA cleavage assay and is resistant to UV irradiation. 10 ng of CPS-6 were incubated with 0.25% ethanol (Mock), 20 μM locked trans-resveratrol with or without UV irradiation, 20 μM trans-resveratrol with or without UV irradiation, and 20 μM cis-resveratrol with or without UV irradiation, respectively, in dark at 4° C. for 1.5 hours, before 1 μg of the pPD49.78 plasmid DNA were added to the reactions. After further incubation at 30° C. for 1 hour, the reactions were resolved on a 1% agarose gel. Three different forms of plasmid DNA are indicated. Resveratrol isomers or derivative were subjected to UV irradiation for 3 hours.
Because resveratrol is an antioxidant and the endonuclease activity of CPS-6 is regulated by redox conditions both in vitro and in vivo, we investigated the possibility that resveratrol isomers could directly affect the nuclease activity of CPS-6 using a plasmid DNA cleavage assay. Recombinant CPS-6 protein was incubated with the supercoiled plasmid DNA substrate in the presence or absence of 20 μM trans-resveratrol or cis-resveratrol and the reactions were resolved by an agarose gel. […] Since the nuclease activity of CPS-6 is required for PME, these in vitro results are consistent with the in vivo observations that trans-resveratrol enhances and cis-resveratrol inhibits PME.

[1] = system: α-synuclein-induced dopaminergic neuronal death in baIn11 animals; assay: α-synuclein-based Parkinson's Disease model, DA neuronal death; type: in vivo, C. elegans; conditions: 100 μM; for effect on α-synuclein-induced DA neuronal death: adult day 2 baIn11 animals vs 0.25% ethanol
Text: (§1) FIG. 8. […] In each experiment, 300 animals were scored to determine the percentage of animals losing at least one dopaminergic neuron in the head. Data are mean±s.e.m. *P<0.05; ***P<0.001, two-sided, unpaired t-test.
FIG. 13. […] In each experiment, 300 animals were scored to determine the percentage of animals losing at least one of the six dopaminergic neurons in the head. Data are mean±s.e.m. ****P<0.001, two-sided, unpaired t-test.
(§2) In addition to PME and apoptosis, EndoG was previously shown to play an important role in mediating dopaminergic (DA) neuronal death induced by expression of human α-synuclein, which is widely considered to be a major proponent of Parkinson's disease. However, the mechanism by which EndoG mediates α-synuclein-induced neurodegeneration is unclear. In a C. elegans α-synuclein-based Parkinson's Disease model, co-expression of GFP and human α-synuclein in C. elegans dopaminergic neurons under the control of the promoter of the dat-1 gene, which encodes a dopamine transporter, from an integrated transgene baIn11 (Pdat-1::gfp/Pdat-1::α-synuclein) caused DA neuronal death in 30% of adult baIn11 animals (FIG. 8a). The cps-6(tm3222) mutation blocked DA neuronal death in adult baIn11 animals (FIG. 8a), confirming that CPS-6 is important for α-synuclein-induced DA neuronal death.

[2] = system: cps-6(tm3222); baIn11 animals; assay: DA neuronal death in cps-6(tm3222); baIn11 animals; type: in vivo, C. elegans; conditions: 100 μM, adult day 2
Text: as §1, §2

SMILES	effect on CPS-6 nuclease activity (CPS-6)	adult baIn11 animals protected from neurodegeneration ([1]; adult day 2) [%]	effect on α-synuclein-induced DA neuronal death [1]	dopaminergic neuronal loss in cps-6(tm3222); baIn11 animals [2]	effect on CPS-6 nuclease activity after UV irradiation of the compound (CPS-6; compound UV irradiated for 3 hours (FIG. 11))	adult baIn11 animals with neurodegeneration (DA neuronal loss) ([1]; adult day 2, mock 30%) [%]
Oc1ccc(/C=C\c2cc(O)cc(O)c2)cc1 [cis-resveratrol]	inhibits CPS-6 nuclease activity	94	strongly inhibited DA neuronal death	did not cause any dopaminergic neuronal loss	–	–
Oc1ccc(/C=C/c2cc(O)cc(O)c2)cc1 [trans-resveratrol, 3,5,4′-trihydroxy-trans-stilbene]	enhances the endonuclease activity of CPS-6	–	enhanced dopaminergic neuron loss	did not cause any dopaminergic neuronal loss	lost its activity to enhance the nuclease activity of CPS-6	40
